Laboratory results: PMC4186434, “Antagonism of human CC-chemokine receptor 4 can be achieved through three distinct binding sites on the receptor” (Pharmacology Research & Perspectives, 2013)

biological target: T1, human CC-chemokine receptor 4 (CCR4); CHO-CCR4 membranes (Homo sapiens, UniProt P51679); assay: […]CCL17 displacement, scintillation proximity assay, CHO-CCR4 membranes; format: binding; details: read-out: [^125I]CCL17 / pKi (converted)
T1 construct: membranes
T1 sequence (P51679 1-360): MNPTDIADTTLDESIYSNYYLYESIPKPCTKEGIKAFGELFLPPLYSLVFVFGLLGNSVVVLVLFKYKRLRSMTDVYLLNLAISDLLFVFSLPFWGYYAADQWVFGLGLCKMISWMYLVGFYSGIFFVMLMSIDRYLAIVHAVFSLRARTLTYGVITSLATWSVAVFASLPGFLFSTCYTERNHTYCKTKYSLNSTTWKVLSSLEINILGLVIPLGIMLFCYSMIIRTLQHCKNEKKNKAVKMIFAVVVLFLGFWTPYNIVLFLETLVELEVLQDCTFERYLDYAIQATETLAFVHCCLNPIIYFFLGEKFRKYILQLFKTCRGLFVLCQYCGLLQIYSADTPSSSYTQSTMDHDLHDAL

Compared with c1ccc2c(Nc3nc(CN(CC4CCCCC4)CC4CCCCC4)cs3)cccc2c1 [compound 1], O=C([C@H]1CCCCN1)N1CCN(c2nccc(NCc3ccc(Cl)cc3Cl)n2)CC1 [compound 4] is 170-fold lower in Ki: 457 nM for the first, 2.75 nM for the second.

Going from COc1cccc2c1c(NS(=O)(=O)c1ccc(Cl)s1)nn2Cc1cccc(CNC(=O)OC(C)(C)C)c1 [compound 2] to COc1cccc2c1c(NS(=O)(=O)c1ccc(Cl)s1)nn2Cc1cccc(CNC(=O)C(C)(C)O)c1 [compound 3], the Ki falls from 18.2 nM to 6.17 nM (2.9-fold).

Compared with COc1cc2nc(N3CCC(N(C)C(=O)[C@H]4CCCN4)CC3)nc(Nc3ccc(Cl)cc3F)c2cc1OC [compound 6], COc1nc(Br)cnc1NS(=O)(=O)c1ccc(Cl)s1 [compound 7] is 15-fold higher in Ki: 2 nM for the first, 29.5 nM for the second.
